Measurements taken from the NIST ThermoML archive (doi:10.1016/j.jct.2017.03.026).
Where “and” joins values, the source holds several entries; their conditions need not be identical. Equal entries are not always repeated. Numbers after ± are expanded uncertainties.

Test: molar heat capacity at constant pressure
Conditions: 101.33 kPa, Crystal, Small (less than 1 g) adiabatic calorimetry

O.O.O.O.O.O=S(=O)([O-])[O-].[Cu+2] [copper(II) sulfate pentahydrate]
Conditions	molar heat capacity at constant pressure
287.75 K	289.04 ± 1.3 J/K/mol
287.82 K	289.61 ± 1.3 J/K/mol
288.14 K	289.34 ± 1.3 J/K/mol
288.18 K	290.46 ± 1.3 J/K/mol
288.42 K	289.31 ± 1.3 J/K/mol
288.47 K	290.31 ± 1.3 J/K/mol
288.59 K	291.83 ± 1.3 J/K/mol
288.8 K	291.86 ± 1.3 J/K/mol
289.09 K	290.24 ± 1.3 J/K/mol
289.13 K	293.01 ± 1.3 J/K/mol
289.48 K	297.45 ± 1.3 J/K/mol
289.75 K	292.88 ± 1.3 J/K/mol
289.76 K	282.28 ± 1 J/K/mol and 282.25 ± 1 J/K/mol and 292.61 ± 1.3 J/K/mol
289.83 K	290.48 ± 1.3 J/K/mol
290 K	282.3 ± 1 J/K/mol
290.23 K	291.98 ± 1.3 J/K/mol
290.44 K	291.33 ± 1.3 J/K/mol
290.57 K	288.74 ± 1.3 J/K/mol
290.91 K	292.31 ± 1.3 J/K/mol and 292.23 ± 1.3 J/K/mol
291.11 K	292.78 ± 1.3 J/K/mol and 291.01 ± 1.3 J/K/mol
291.26 K	298.2 ± 1.3 J/K/mol
291.62 K	292.93 ± 1.3 J/K/mol
291.78 K	291.86 ± 1.3 J/K/mol
291.96 K	292.13 ± 1.3 J/K/mol
292.07 K	282.87 ± 1 J/K/mol
292.1 K	293.31 ± 1.3 J/K/mol
292.31 K	293.26 ± 1.3 J/K/mol
292.46 K	294.11 ± 1.3 J/K/mol
292.51 K	284.12 ± 1 J/K/mol
292.65 K	291.23 ± 1.3 J/K/mol
292.99 K	292.66 ± 1.3 J/K/mol
293.15 K	293.46 ± 1.3 J/K/mol
293.27 K	294.35 ± 1.3 J/K/mol
293.33 K	294.9 ± 1.3 J/K/mol
293.67 K	295.88 ± 1.3 J/K/mol
293.82 K	293.83 ± 1.3 J/K/mol
294.03 K	294.9 ± 1.3 J/K/mol and 295.65 ± 1.3 J/K/mol
294.37 K	295.73 ± 1.3 J/K/mol
294.44 K	295.25 ± 1.3 J/K/mol
294.48 K	285.79 ± 1 J/K/mol
294.5 K	295.03 ± 1.3 J/K/mol
294.72 K	294.11 ± 1.3 J/K/mol
295.06 K	293.36 ± 1.3 J/K/mol
295.25 K	295.78 ± 1.3 J/K/mol
295.26 K	286 ± 1 J/K/mol
295.4 K	295.15 ± 1.3 J/K/mol
295.61 K	296.03 ± 1.3 J/K/mol
295.81 K	299.05 ± 1.3 J/K/mol
295.94 K	296.5 ± 1.3 J/K/mol
296.17 K	298.85 ± 1.3 J/K/mol
296.52 K	298.75 ± 1.3 J/K/mol
296.64 K	295.93 ± 1.3 J/K/mol
296.79 K	296.15 ± 1.3 J/K/mol
296.84 K	287.36 ± 1 J/K/mol
296.88 K	296.35 ± 1.3 J/K/mol
296.93 K	297 ± 1.3 J/K/mol
297.22 K	297.15 ± 1.3 J/K/mol
297.32 K	296.23 ± 1.3 J/K/mol
297.57 K	297.23 ± 1.3 J/K/mol
297.91 K	299.05 ± 1.3 J/K/mol
297.94 K	297.85 ± 1.3 J/K/mol
298 K	296.85 ± 1.3 J/K/mol
298.02 K	287.88 ± 1 J/K/mol
298.15 K	288 ± 1 J/K/mol
298.25 K	298.42 ± 1.3 J/K/mol
298.59 K	299.17 ± 1.3 J/K/mol
298.68 K	299.05 ± 1.3 J/K/mol
298.94 K	299.4 ± 1.3 J/K/mol
299.12 K	298.65 ± 1.3 J/K/mol
299.23 K	288.76 ± 1 J/K/mol
299.29 K	300.47 ± 1.3 J/K/mol
299.37 K	298.15 ± 1.3 J/K/mol
299.64 K	299.5 ± 1.3 J/K/mol
299.82 K	299.2 ± 1.3 J/K/mol
300 K	289.3 ± 1.1 J/K/mol
300.06 K	299.2 ± 1.3 J/K/mol
300.3 K	299.45 ± 1.3 J/K/mol
300.75 K	298.85 ± 1.3 J/K/mol
300.77 K	289.98 ± 1.1 J/K/mol
